Data on 5 compounds can be found in paper PMC8725837, “2-Arylquinolines as novel anticancer agents with dual EGFR/FAK kinase inhibitory activity: synthesis, biological evaluation, and molecular modelling insights” (Journal of Enzyme Inhibition and Medicinal Chemistry, 2021).

SMILES strings stand for the structures.

The subject of data set [1] is MDMBA-231 breast cancer cell line. Briefly: MTT antiproliferative assay, MDMBA-231. The conditions noted are these: 10 µM, 24 h. The format is cell-based. How it is done:
(§1) At least, three independent experiments were performed.

The test system of data set [2] is MCF-7 breast cancer cell line. Kind of data set: MTT antiproliferative assay, MCF-7. The format is cell-based. The note with it: 10 µM, 24 h. How it is done:
as §1

Data set [3] relates to HeLa cervical cancer cell line. Briefly: MTT antiproliferative assay, HeLa. The conditions noted are these: 10 µM, 24 h. The format is cell-based. How it is done:
as §1

Data set [4] relates to DLD-1 colorectal cancer cell line. Briefly: Annexin V-FITC/propidium iodide apoptosis assay (AV/PI). The conditions noted are these: 3 µM, 24 h; control 7%. The format is cell-based. How it is done:
Also, compounds 6f, 6i, 16d, and 20f exerted potential apoptotic effect elevating the total percentage of apoptotic cells to 84.33, 71.66, 51.66, and 80.66%, respectively.
Flow cytometric analysis was conducted using FACS Calibur flow cytometer (BD Biosciences, San Jose, CA, USA).

For data set [5], the target named is T1, FRK (Homo sapiens, UniProt P42685).
T1 construct: purchased Invitrogen/Life Technologies
Kind of data set: Z`-LYTE kinase profiling, FRK. The format is biochemical.

In data set [6] the target is T2, IGF-1R (Homo sapiens, UniProt P08069).
T2 construct: purchased Invitrogen/Life Technologies
Briefly: Z`-LYTE kinase profiling, IGF-1R. The format is biochemical.

Data set [7] concerns the target T3, BTK (Homo sapiens, UniProt Q06187).
T3 construct: purchased Invitrogen/Life Technologies
Briefly: Z`-LYTE kinase profiling, BTK. The format is biochemical.

In data set [8] the target is T4, c-Src (Homo sapiens, UniProt P12931).
T4 construct: purchased Invitrogen/Life Technologies
Briefly: Z`-LYTE kinase profiling, c-Src. The format is biochemical.

The target in data set [9] is T5, VEGFR-1 (Homo sapiens, UniProt P17948).
T5 construct: purchased Invitrogen/Life Technologies
Kind of data set: Z`-LYTE kinase profiling, VEGFR-1. The format is biochemical.

Data set [10] concerns the target T6, VEGFR-2 (Homo sapiens, UniProt P35968).
T6 construct: purchased Invitrogen/Life Technologies
Briefly: Z`-LYTE kinase profiling, VEGFR-2. The format is biochemical.

Data set [11] concerns the target T7, HER-2 (Homo sapiens, UniProt P04626).
T7 construct: purchased Invitrogen/Life Technologies
Kind of data set: Z`-LYTE kinase profiling, HER-2. The format is biochemical.

In data set [12] the test system is DLD-1 colorectal cancer cell line. Kind of data set: MTT antiproliferative assay, DLD-1. The note with it: for GI% DLD1: 10 µM, 24 h, MTT; for IC50: Homo sapiens, DLD-1, 24 h, read-out: IC50 DLD1 (half maximal growth inhibitory concentration); for fold superior activity compared to Gefitinib, DLD-1: from IC50 values. For orientation: Tetrazolium assays rely on reduction of a dye to a coloured formazan, in cell work by metabolically active cells.

In data set [13] the test system is HCT-116 colorectal cancer cell line. Kind of data set: MTT antiproliferative assay, HCT-116. The conditions noted are these: for GI% HCT-116: 10 µM, 24 h, MTT; for IC50: Homo sapiens, HCT-116, 24 h, read-out: IC50 HCT-116 (half maximal growth inhibitory concentration).
Procedure: After the incubation of the tested compounds for 24 h, the percent growth inhibition (GI%) was calculated.
Cells were seeded at 1 × 10^4 cells/well and cultured overnight in a 96-well plate. […] Then, 150 µl DMSO was used to solubilise MTT formazan crystals. Finally, the plates were shaken, and the optical density was determined at 570 nm using ELISA plate reader. At least, three independent experiments were performed. Percentage of growth inhibition was determined as (1-[OD of treated cells/OD of control cells]). […] The IC50 values were calculated using Prism v0.8 software (GraphPad Software Inc., La Jolla, CA).
The target in data set [14] is FAK (Homo sapiens, UniProt Q05397). Briefly: Z`-LYTE kinase inhibitory assay, FAK.
For data set [15], the target named is EGFR (Homo sapiens, UniProt P00533). Briefly: Z`-LYTE kinase inhibitory assay, EGFR.
Data set [16] deals with T8, recombinant human TOP1 (Homo sapiens, UniProt P11387).
T8 sequence (P11387 1-765): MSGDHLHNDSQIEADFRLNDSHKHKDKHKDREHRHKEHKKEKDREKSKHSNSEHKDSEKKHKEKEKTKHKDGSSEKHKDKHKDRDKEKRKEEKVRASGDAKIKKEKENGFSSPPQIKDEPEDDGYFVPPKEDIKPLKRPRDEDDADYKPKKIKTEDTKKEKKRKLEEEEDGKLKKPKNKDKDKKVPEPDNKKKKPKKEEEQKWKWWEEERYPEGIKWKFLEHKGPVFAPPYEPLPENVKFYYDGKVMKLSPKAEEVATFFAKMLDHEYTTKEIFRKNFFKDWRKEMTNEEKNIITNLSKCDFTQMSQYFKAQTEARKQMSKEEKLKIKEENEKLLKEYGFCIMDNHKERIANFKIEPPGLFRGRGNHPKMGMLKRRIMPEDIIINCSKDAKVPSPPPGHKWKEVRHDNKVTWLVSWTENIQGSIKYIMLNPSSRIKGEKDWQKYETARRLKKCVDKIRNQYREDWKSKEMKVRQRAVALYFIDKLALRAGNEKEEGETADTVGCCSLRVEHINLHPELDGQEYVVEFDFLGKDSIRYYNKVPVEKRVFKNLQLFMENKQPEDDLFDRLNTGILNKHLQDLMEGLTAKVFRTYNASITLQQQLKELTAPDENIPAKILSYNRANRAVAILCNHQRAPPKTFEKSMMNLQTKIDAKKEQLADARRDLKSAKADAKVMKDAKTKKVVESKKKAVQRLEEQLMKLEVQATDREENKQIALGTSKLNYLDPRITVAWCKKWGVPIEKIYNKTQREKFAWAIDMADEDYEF
Briefly: Topoisomerase I-mediated DNA cleavage assay. The note with it: tested at 0.1, 1, 10, 100 µM.
Procedure: Radiolabeled DNA was incubated with recombinant human TOP1 in 20 µL reaction buffer (10 mmol/L Tris-HCl, pH 7.5, 50 mmol/L KCl, 5 mmol/L MgCl2, 0.1 mmol/L EDTA, and 15 µg/mL BSA) at 30 °C for 20 min in the presence of the indicated drug concentrations. Reactions were terminated by adding SDS (0.5% final concentration) followed by the addition of two volumes of loading dye (80% formamide, 10 mmol/L sodium hydroxide, 1 mmol/L sodium EDTA, 0.1% xylene cyanol, and 0.1% bromophenol blue). Aliquots of reaction mixtures were subjected to 20% denaturing PAGE. Gels were dried and visualised by using PhosphorImager and Image Quant software (Molecular Dynamics).

T3 sequence (Q06187 whole entry): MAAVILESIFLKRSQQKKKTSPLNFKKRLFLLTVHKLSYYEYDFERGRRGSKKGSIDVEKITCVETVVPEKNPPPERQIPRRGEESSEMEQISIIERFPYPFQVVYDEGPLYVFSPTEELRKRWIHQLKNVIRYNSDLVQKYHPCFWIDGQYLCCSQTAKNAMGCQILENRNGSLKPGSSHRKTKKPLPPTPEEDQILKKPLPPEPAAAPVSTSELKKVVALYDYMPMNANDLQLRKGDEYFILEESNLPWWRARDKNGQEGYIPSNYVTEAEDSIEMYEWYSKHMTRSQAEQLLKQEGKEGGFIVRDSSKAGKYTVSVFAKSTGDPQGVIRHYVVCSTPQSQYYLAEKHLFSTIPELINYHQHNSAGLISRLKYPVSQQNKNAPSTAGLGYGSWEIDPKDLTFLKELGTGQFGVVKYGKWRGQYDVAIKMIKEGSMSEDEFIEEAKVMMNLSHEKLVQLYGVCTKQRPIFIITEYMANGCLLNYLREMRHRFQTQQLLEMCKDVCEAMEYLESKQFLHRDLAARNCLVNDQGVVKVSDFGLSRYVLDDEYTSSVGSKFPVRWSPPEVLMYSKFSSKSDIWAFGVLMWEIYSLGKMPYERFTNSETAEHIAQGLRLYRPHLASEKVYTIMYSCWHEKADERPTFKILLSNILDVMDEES
T6 sequence (P35968 20-1356): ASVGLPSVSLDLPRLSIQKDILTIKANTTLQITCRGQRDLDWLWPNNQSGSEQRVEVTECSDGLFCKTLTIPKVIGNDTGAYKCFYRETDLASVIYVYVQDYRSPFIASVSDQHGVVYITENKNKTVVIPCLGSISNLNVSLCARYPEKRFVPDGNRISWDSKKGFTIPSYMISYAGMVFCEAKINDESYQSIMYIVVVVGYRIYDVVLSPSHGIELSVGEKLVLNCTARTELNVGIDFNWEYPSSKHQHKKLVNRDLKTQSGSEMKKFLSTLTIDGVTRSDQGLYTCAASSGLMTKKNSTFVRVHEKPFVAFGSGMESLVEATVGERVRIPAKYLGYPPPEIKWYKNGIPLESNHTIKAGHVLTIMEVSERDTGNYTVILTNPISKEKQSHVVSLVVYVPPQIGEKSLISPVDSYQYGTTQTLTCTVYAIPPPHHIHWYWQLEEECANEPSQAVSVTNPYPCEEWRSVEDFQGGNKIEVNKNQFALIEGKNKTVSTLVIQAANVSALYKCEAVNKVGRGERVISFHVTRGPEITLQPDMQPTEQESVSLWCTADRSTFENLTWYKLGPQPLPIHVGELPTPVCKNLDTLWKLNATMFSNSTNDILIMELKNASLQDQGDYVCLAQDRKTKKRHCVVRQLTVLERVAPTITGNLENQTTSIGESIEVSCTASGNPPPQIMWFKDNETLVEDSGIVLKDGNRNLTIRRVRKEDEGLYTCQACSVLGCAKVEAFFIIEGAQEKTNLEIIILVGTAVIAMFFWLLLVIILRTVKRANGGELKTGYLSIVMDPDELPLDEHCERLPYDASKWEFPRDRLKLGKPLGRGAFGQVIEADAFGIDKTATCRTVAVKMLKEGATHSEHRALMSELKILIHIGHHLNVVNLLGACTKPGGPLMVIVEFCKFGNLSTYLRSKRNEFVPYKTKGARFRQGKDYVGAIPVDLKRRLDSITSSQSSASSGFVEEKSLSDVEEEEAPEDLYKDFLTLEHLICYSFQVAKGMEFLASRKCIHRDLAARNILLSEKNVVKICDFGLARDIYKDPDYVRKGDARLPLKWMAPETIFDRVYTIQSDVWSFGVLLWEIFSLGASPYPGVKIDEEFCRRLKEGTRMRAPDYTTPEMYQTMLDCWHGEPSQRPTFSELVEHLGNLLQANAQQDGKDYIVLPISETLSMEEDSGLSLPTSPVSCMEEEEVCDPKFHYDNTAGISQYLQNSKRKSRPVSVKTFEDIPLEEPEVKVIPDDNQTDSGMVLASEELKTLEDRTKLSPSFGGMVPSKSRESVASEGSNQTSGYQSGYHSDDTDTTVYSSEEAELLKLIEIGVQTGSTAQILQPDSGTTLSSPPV
T7 sequence (P04626 23-1255): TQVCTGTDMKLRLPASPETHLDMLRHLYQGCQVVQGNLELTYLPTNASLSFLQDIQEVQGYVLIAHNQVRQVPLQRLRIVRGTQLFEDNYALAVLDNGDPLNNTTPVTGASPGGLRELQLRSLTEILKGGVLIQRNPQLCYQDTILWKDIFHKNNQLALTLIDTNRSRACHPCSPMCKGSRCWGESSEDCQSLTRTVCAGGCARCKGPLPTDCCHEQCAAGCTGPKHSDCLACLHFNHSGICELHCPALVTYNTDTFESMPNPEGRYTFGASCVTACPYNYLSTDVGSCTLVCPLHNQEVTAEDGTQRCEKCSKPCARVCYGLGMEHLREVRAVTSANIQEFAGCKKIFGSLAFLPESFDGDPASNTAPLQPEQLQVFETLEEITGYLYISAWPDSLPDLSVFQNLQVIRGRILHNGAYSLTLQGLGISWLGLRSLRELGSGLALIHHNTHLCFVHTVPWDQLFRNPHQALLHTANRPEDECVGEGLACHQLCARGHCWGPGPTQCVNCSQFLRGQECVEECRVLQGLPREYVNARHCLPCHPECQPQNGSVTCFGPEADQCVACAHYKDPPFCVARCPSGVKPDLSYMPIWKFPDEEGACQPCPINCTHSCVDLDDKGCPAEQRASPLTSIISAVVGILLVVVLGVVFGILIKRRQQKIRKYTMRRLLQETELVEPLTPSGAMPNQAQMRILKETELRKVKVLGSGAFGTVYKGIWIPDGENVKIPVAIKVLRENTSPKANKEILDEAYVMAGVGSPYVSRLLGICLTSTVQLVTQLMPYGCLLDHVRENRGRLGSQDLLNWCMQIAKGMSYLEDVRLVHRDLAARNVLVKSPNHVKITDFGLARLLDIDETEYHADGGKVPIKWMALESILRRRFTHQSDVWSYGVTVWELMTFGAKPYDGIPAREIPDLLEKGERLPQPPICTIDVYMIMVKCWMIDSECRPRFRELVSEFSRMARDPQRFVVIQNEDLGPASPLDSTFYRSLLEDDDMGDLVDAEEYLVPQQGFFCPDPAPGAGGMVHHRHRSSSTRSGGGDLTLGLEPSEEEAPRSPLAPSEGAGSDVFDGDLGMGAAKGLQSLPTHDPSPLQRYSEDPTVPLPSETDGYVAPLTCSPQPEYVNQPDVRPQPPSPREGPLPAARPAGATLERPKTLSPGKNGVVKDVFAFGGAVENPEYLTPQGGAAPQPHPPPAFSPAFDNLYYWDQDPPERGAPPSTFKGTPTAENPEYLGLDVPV
Chain of FAK (Q05397 whole entry): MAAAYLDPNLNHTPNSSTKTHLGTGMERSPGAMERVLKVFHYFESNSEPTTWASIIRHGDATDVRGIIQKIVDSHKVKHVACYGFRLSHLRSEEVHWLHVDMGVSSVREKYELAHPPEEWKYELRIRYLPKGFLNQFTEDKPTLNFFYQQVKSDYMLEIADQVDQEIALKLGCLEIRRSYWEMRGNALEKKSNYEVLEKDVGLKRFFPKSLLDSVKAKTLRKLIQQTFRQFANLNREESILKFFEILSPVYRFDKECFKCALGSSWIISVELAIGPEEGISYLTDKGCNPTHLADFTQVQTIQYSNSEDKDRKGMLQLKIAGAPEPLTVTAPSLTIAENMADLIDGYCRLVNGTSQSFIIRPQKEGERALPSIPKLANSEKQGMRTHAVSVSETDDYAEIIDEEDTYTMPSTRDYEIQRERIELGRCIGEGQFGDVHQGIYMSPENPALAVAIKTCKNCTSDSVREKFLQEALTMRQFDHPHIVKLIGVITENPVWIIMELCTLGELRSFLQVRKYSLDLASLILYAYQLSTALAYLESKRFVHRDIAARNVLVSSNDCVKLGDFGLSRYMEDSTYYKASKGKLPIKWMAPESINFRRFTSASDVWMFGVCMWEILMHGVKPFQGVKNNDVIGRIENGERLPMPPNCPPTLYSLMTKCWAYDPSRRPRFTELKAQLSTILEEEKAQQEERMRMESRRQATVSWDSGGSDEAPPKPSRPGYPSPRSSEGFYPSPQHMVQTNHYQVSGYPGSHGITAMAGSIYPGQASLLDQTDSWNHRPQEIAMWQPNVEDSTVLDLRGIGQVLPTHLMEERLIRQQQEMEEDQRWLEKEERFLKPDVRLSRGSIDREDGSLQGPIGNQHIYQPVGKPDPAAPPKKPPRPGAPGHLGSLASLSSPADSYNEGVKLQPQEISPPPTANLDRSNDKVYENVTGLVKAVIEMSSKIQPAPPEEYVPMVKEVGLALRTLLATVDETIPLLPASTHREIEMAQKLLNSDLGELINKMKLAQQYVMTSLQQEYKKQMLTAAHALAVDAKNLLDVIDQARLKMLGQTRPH
T4 sequence (P12931 whole entry): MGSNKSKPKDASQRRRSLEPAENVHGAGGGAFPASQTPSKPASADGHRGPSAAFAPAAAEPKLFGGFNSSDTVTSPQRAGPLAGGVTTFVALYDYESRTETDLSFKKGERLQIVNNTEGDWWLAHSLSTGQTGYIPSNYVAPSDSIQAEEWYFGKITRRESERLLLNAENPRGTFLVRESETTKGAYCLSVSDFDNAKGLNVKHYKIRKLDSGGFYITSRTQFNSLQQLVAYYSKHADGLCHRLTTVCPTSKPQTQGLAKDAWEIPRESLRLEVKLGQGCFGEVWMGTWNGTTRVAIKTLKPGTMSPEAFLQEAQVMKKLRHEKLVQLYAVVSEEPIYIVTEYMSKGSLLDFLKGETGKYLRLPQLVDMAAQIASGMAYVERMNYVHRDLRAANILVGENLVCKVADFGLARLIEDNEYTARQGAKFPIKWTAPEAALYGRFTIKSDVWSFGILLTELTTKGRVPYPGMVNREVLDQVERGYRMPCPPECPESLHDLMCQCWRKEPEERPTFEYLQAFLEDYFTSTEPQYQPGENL

Take `COc1cc2nc(-c3ccc(C(F)(F)F)cc3)cc(OCCCN3CCN(C)CC3)c2cc1OC` [6f, 6,7-dimethoxy-4–(3-(4-methylpiperazin-1-yl)propoxy)-2–(4-(trifluoromethyl)phenyl)quin-oline]: the “GI% MDMBA-231” value in data set [1] came out at 75.34%. Further, in [2], the “GI% MCF-7” value turned out to be 94.36%. In data set [3], the “GI% Hela” value came out at 69.17%. Besides, the “total percentage of AV positive apoptotic DLD-1 cells” value (“total percentage” for short) in data set [4] was determined as 84.33%. For the same compound, the IC50 in data set [5] was 5050 nM; in [6] it was 5350 nM; in data set [7], 8790 nM; in data set [8], 3940 nM; in [9], 1730 nM; in data set [10], 1940 nM. The IC50 in data set [11] is 639 nM; in data set [12], 2250 ± 960 nM; in data set [13], 3090 ± 1050 nM; in data set [14], 22.7 ± 2.38 nM; in data set [15], 25.4 ± 3.49 nM. Moreover, the “GI% DLD1” value in [12] is 95.36%. Further, the “fold superior activity compared to Gefitinib, DLD-1” value (shortened to “fold superior activity”) in data set [12] was 4 fold. The “GI% HCT-116” value in data set [13] came out at 88.46%. Besides, the “TOP1 inhibitory activity (semiquantitative score relative to 1 µM CPT)” value in data set [16] turned out to be 0.

With `COc1cc2nc(-c3ccc(C(F)(F)F)cc3)cc(OCCCNC3CCN(C)CC3)c2cc1OC` [6h, N-(3-((6,7-dimethoxy-2–(4-(trifluoromethyl)phenyl)quinolin-4-yl)oxy)propyl)-1-methyl p-iperidin-4-amine], the “GI% MDMBA-231” value in data set [1] worked out at 84.76%. Further, in [2], the “GI% MCF-7” value is on record as 90.36%. Further, the “GI% Hela” value in [3] was found to be 90.78%. In data set [4], the “total percentage” value was 90.33%. Further, the IC50 in data set [5] was 330 nM; in data set [6] it was 197 nM; in data set [7], 3480 nM; in [8], 3580 nM; in [9], 464 nM; in [10], 2450 nM. In addition, the IC50 in data set [11] amounted to 1580 nM; in data set [12], 1790 ± 210 nM; in [13] it was 3280 ± 670 nM; in data set [14] it was 14.2 ± 2.72 nM; in data set [15], 20.2 ± 1.07 nM. Also, the “GI% DLD1” value in data set [12] came to 92.36%. The “fold superior activity” value in data set [12] is listed as 5 fold. Also, the “GI% HCT-116” value in data set [13] was determined as 89.34%. Moreover, in data set [16], the “TOP1 inhibitory activity (semiquantitative score relative to 1 µM CPT)” value was “−/+ (−/+: 0–25% 1 µM CPT)”.

Regarding `COc1cc2nc(-c3ccc(C(F)(F)F)cc3)cc(OCCCNCC3CCCO3)c2cc1OC` (stereo not drawn) [6i, 3-((6,7-dimethoxy-2–(4-(trifluoromethyl)phenyl)quinolin-4-yl)oxy)-N-((tetrahydrofuran-2-yl)methyl)propan-1-amine], the “GI% MDMBA-231” value in data set [1] is reported as 81.60%. Also, the “GI% MCF-7” value in data set [2] was determined as 89.49%. In addition, the “GI% Hela” value in [3] worked out at 78.64%. In addition, the “total percentage” value in [4] turned out to be 71.66%. Moreover, the IC50 is 1210 nM in [5]; 1710 nM in data set [6]; 7290 nM in [7]; 7010 nM in data set [8]; 801 nM in data set [9]; 8240 nM in data set [10]. Further, the IC50 in [11] was found to be 1380 nM; in data set [12] it was 2480 ± 860 nM; in [13], 5680 ± 1420 nM; in data set [14] it was 18.4 ± 3.17 nM; in [15], 22.4 ± 2.05 nM. In addition, the “GI% DLD1” value in data set [12] is reported as 88.76%. Further, in data set [12], the “fold superior activity” value is listed as 4 fold. Moreover, the “GI% HCT-116” value in data set [13] came out at 82.11%. The “TOP1 inhibitory activity (semiquantitative score relative to 1 µM CPT)” value in data set [16] was 0.

As usually defined, the melting point is the temperature, or range, at which the solid turns liquid. The compound `Fc1ccc(-c2cc(OCCCN3CCOCC3)c3cc(Br)ccc3n2)cc1` [16d, 4-(3-((6-bromo-2-(4-fluorophenyl)quinolin-4-yl)oxy)propyl)morpholine] yielded a melting point of 132 to 134 °C. In addition, the “GI% MDMBA-231” value in [1] stood at 80.24%. In data set [2], the “GI% MCF-7” value came to 86.38%. For the same compound, in [3], the “GI% Hela” value is 85.67%. Also, the “total percentage” value in data set [4] is 51.66%. The compound also showed an IC50 in data set [5] of 1730 nM. In addition, the IC50 in data set [6] turned out to be 2230 nM. For the same compound, the IC50 in [7] amounted to 2100 nM. In data set [8], the IC50 came to 3900 nM. The compound further gave an IC50 in data set [9] of 1770 nM. Moreover, the IC50 in data set [10] is 4690 nM. In addition, the IC50 in [11] stood at 358 nM. In [12], the “GI% DLD1” value worked out at 90.11%; the IC50 stood at 2180 ± 520 nM; the “fold superior activity” value turned out to be 4 fold. Moreover, in data set [13], the “GI% HCT-116” value is 97.48% and the IC50 amounted to 2430 ± 710 nM. This compound also returned an IC50 in [14] of 17.4 ± 2.15 nM. Besides, the IC50 in [15] was 35 ± 2.64 nM. The “TOP1 inhibitory activity (semiquantitative score relative to 1 µM CPT)” value in data set [16] amounted to 0.

In the case of `Clc1ccc(-c2cc(OCCCN3CCOCC3)c3cc(-c4ccco4)ccc3n2)cc1` [20f, 4-(3-((2-(4-chlorophenyl)-6-(furan-2-yl)quinolin-4-yl)oxy)propyl)morpholine], the “GI% MDMBA-231” value in [1] was found to be 82.58%. The “GI% MCF-7” value in [2] is 87.36%. The “GI% Hela” value in data set [3] is 79.64%. Besides, the “total percentage” value in data set [4] was 80.66%. The IC50 in data set [5] came to 632 nM; in [6], 3530 nM; in data set [7], 23.5 nM; in data set [8], 92.1 nM; in data set [9] it was 870 nM; in data set [10], 89.3 nM. Besides, the IC50 in data set [11] came to 251 nM; in data set [12] it was 2090 ± 140 nM; in data set [13], 2960 ± 120 nM; in data set [14] it was 15.4 ± 0.98 nM; in [15], 24.8 ± 2.71 nM. For the same compound, in data set [12], the “GI% DLD1” value was 94.18%. The “fold superior activity” value in [12] turned out to be 4 fold. In data set [13], the “GI% HCT-116” value amounted to 91.37%. In addition, the “TOP1 inhibitory activity (semiquantitative score relative to 1 µM CPT)” value in data set [16] was 0.
